# Measured values from PMC4494349, “Epitope Prediction Assays Combined with Validation Assays Strongly Narrows down Putative Cytotoxic T Lymphocyte Epitopes” (Vaccines, 2015).
# Key:
# H-2D^b = target: T1, H-2D^b (Mus musculus, UniProt P01899); assay: MHC class I stabilization assay on RMA-S cells, H-2D^b surface expression; format: cell-based; details: for H-2D^b binder class (weak, intermediate, strong) by stabilization of MHC class I on RMA-S cells: 10 μM (Figure 1a), in words; for MHC I Stabilization Assay, fluorescence index class, H-2D^b: RMA-S cells 26 °C 4 h then 37 °C 1 h, flow cytometry
# T1 sequence (P01899 25-362): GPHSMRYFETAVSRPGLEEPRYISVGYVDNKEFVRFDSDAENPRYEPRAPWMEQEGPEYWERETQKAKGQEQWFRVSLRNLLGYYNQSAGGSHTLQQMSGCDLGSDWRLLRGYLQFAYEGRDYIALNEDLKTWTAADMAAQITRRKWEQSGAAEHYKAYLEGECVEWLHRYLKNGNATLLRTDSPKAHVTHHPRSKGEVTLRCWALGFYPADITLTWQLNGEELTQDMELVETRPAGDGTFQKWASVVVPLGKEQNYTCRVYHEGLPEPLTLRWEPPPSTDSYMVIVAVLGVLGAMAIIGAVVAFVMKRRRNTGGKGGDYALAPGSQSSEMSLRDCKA
# T1 sequence (P01887 21-119 partner): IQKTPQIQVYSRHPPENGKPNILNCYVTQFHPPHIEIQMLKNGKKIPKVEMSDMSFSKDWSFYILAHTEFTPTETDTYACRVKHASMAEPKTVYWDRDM
# H-2K^b = target: T2, H-2K^b (Mus musculus, UniProt P01901); assay: MHC class I stabilization assay on RMA-S cells, H-2K^b surface expression; details: for MHC I Stabilization Assay, fluorescence index class, H-2K^b: RMA-S cells 26 °C 4 h then 37 °C 1 h, flow cytometry
# T2 sequence (P01901 22-369): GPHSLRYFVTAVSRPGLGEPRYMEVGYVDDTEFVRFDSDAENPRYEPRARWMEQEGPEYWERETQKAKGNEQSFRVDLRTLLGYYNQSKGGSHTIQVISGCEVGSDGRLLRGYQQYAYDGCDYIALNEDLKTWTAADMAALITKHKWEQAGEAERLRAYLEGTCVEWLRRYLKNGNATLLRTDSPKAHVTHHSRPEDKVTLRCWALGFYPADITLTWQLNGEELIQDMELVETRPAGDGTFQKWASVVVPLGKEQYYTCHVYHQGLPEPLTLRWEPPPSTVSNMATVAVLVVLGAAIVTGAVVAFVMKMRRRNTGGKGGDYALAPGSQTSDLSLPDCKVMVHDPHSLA
# T2 sequence (P01887 21-119 partner): T1 sequence (P01887 21-119 partner)
# Experimental: RMA-S cells were maintained in IMDM (Life Technologies, Bleiswijk, The Netherlands) supplemented with 10% FBS and 100 U/mL penicillin and 100 μg/mL streptomycin (Life Technologies). RMA-S cells were cultured at 26 °C for 48 h to induce expression of MHC class I molecules. Cells were then incubated with various concentrations of synthetic peptides at 26 °C for 4 h, followed by a 1-h culture at 37 °C. […] The surface expression of MHC class I molecules were analyzed by FACSCalibur cytometer (BD Biosciences, Breda, The Netherlands) and data analyzed with FlowJo software (Treestar, Ashland, OR, USA). Fluorescence index was calculated by dividing the median fluorescence intensity (MFI) value of cells incubated with SLPs by the MFI value of cells incubated with equivalent concentration of DMSO.
# [1] = synthetic long peptides, peptide concentration 10 μM, FI = MFI peptide / MFI DMSO
Sequence,"H-2D^b binder class (weak, intermediate, strong) by stabilization of MHC class I on RMA-S cells (H-2D^b; synthetic long peptides)","MHC I Stabilization Assay, fluorescence index class, H-2D^b (H-2D^b; [1])",also measured
LSQTKQSGENFPYLVAY [NS3_547-563],intermediate (0.5–1.5: intermediate binders (++)),++ (0.5–1.5 ++),–
ALGINAVAYYRGLDVSVI [NS3_383-400],intermediate (0.5–1.5: intermediate binders (++)),++ (0.5–1.5 ++),–
RLGAVQNEVTLTHPITKY [NS3_601-618],weak (0.2–0.5: weak binders (+)),+ (Fluorescence index of H-2D^b: 0.2–0.5 +),–
IQMYTNVDQDLVGWPA [NS3_72-87],weak (0.2–0.5: weak binders (+)),+ (Fluorescence index of H-2D^b: 0.2–0.5 +),–
SIINFEKL [OVA257-264],–,–,"Fluorescence index (FI), stabilization of H-2K^b (H-2K^b; short peptides at 100 μM, strong binders): > 8; plateau of stabilization of H-2K^b molecules (H-2K^b; short peptides, up to high peptide concentration (100 μM)): not detectable; MHC I Stabilization Assay, fluorescence index class, H-2K^b (H-2K^b; short synthetic peptides, serially diluted (Figure 2b)): +++ (>8 +++); MHC I Stabilization Assay, fluorescence index class, H-2D^b (H-2D^b; short synthetic peptides, serially diluted (Figure 2a)): ++ (0.5–1.5 ++)"
ATPPGSVTVSHPNIEEVA [NS3_323-340],weak (0.2–0.5: weak binders (+)),+ (Fluorescence index of H-2D^b: 0.2–0.5 +),–
VPAAYAAQGYKVLVL [NS3_214-228],intermediate (0.5–1.5: intermediate binders (++)),++ (0.5–1.5 ++),"H-2K^b binder class (weak, intermediate, strong) by stabilization of MHC class I on RMA-S cells (H-2K^b; synthetic long peptides, 10 μM (Figure 1b), in words): weak (0.2–2: weak binders (+)); MHC I Stabilization Assay, fluorescence index class, H-2K^b (H-2K^b; [1]): + (Fluorescence index of H-2K^b: 0.2–2 +)"
AETTVRLRAYMNTPGLPV [NS3_507-524],strong (>1.5: strong binders (+++)),+++ (>1.5 +++),–
